Test results taken from patent publication US12275684B2, “Methods for making and using endoxifen” (Atossa Therapeutics, Inc., priority 2017, dated 2025).

Assay: Accelerated stability study of (Z)-endoxifen free base solution in ethanol (E/Z by HPLC)
Type: physicochemical
Experimental: HPLC-UV analyses of the samples was carried out using a Luna phenyl-hexyl column (4.6 mm×150 mm×3 μm of particle size). The column temperature was 40° C. and sample compartment temperature was maintained at ambient temperature. Samples were prepared by dissolving solids and filtrates at 0.2 mg/ml of sample in methanol as sample buffer. Samples were then injected into the column in an injection volume of 20 μl. Likewise, mildly acidic (pH 4.3) ammonium formate buffer/methanol in the mobile phase with gradient elution was used. Mobile phase system consisting of: Mobile Phase A (MPA) buffer was 10 mM HCOONH4 with 0.03% HCOOH buffer in water, and Mobile Phase B (MBP) buffer was 10 mM HCOONH4 in methanol with a gradient program used.
The run time was 30 m, the flow rate was 1.0 mL/m, and the delay time was 5 m. Samples were detected by UV detection at 243 nm. Retention times were typically from 12.95 to 13.20 m for (E)-endoxifen and from 14.0 to 14.33 m for (Z)-endoxifen. Relative Retention Time (RRT) for (E)-endoxifen was […] and 1.0 for (Z)-endoxifen.
The stability of (Z)-endoxifen free base Sample 1 of Table 11 was studied when stored at various temperatures in solid form and in ethanol (EtOH) solution. The (E)-endoxifen and (Z)-endoxifen levels were measured on days 2, 7 and 10 following placement of 1 g aliquots of purified (Z)-endoxifen free base in 180 mL HDPE bottles under dry N2, which were then placed in double LDPE bags. The double bagged HDPE bottles containing each sample were individually packed in aluminum foil bags and thermally sealed until they were opened for testing the stability of the samples. The (E)- and (Z)-isomers of endoxifen were monitored by HPLC as disclosed above. The purity of (Z)-endoxifen in solid form remained at about 97% at 40° C., 60° C., and 80° C. up to 10 days.

[1] = 2.8 mg/mL in 70% EtOH, 25° C., 2 days
[2] = 2.8 mg/mL in 70% EtOH, 25° C., 7 days
[3] = 2.8 mg/mL in 70% EtOH, 25° C., 10 days
[4] = 2.8 mg/mL in 70% EtOH, 40° C., 2 days
[5] = 2.8 mg/mL in 70% EtOH, 40° C., 7 days
[6] = 2.8 mg/mL in 70% EtOH, 40° C., 10 days
[7] = 10 mg/mL in 99.5% EtOH, 25° C., 2 days
[8] = 10 mg/mL in 99.5% EtOH, 25° C., 7 days
[9] = 10 mg/mL in 99.5% EtOH, 25° C., 10 days
[10] = 10 mg/mL in 99.5% EtOH, 40° C., 2 days
[11] = 10 mg/mL in 99.5% EtOH, 40° C., 7 days
[12] = 10 mg/mL in 99.5% EtOH, 40° C., 10 days

- (E)-endoxifen content [1]: (2.09%/
- (Z)-endoxifen content [1]: 96.59%)
- E/Z ratio [1]: 1/46
- Total Impurity [1]: 1.33%
- (E)-endoxifen content [2]: (5.62%
- (Z)-endoxifen content [2]: 92.67%)
- E/Z ratio [2]: 1/17
- Total Impurity [2]: 1.71%
- (E)-endoxifen content [3]: (10.46%/
- (Z)-endoxifen content [3]: 88.20%)
- Total Impurity [3]: 1.34%
- (E)-endoxifen content [4]: (4.43%/
- (Z)-endoxifen content [4]: 94.23%)
- E/Z ratio [4]: 1/21
- Total Impurity [4]: 1.34%
- (E)-endoxifen content [5]: (15.23%/
- (Z)-endoxifen content [5]: 83.04%)
- Total Impurity [5]: 1.73%
- (E)-endoxifen content [6]: (22.59%/
- (Z)-endoxifen content [6]: 76.09%)
- Total Impurity [6]: 1.32%
- (E)-endoxifen content [7]: (1.37%/
- (Z)-endoxifen content [7]: 97.33%)
- E/Z ratio [7]: 1/71
- Total Impurity [7]: 1.3%
- (E)-endoxifen content [8]: (1.91%/
- (Z)-endoxifen content [8]: 96.37%)
- E/Z ratio [8]: 1/50
- Total Impurity [8]: 1.72%
- (E)-endoxifen content [9]: (2.58%/
- (Z)-endoxifen content [9]: 96.03%)
- E/Z ratio [9]: 1/37
- Total Impurity [9]: 1.39%
- (E)-endoxifen content [10]: (1.70%/
- (Z)-endoxifen content [10]: 96.98%)
- E/Z ratio [10]: 1/57
- Total Impurity [10]: 1.32%
- (E)-endoxifen content [11]: (2.82%/
- (Z)-endoxifen content [11]: 95.45%)
- E/Z ratio [11]: 1/34
- Total Impurity [11]: 1/73%
- (E)-endoxifen content [12]: (3.56%/
- (Z)-endoxifen content [12]: 95.10%)
- E/Z ratio [12]: 1/27
- Total Impurity [12]: 1.34%
- stability in alcoholic solutions (ethanol, elevated temperatures (40° C.), higher concentrations, over 10 days): surprisingly stable
SMILES: CC/C(=C(\c1ccc(O)cc1)c1ccc(OCCNC)cc1)c1ccccc1 [(Z)-Endoxifen, (Z)-4-(1-(4-(2-(methylamino)ethoxy)phenyl)-2-phenylbut-1-enyl) phenol]
